Molecules are shown by their SMILES.

Sequence of C3 convertase (CVF:Bb) (P00751 260-764 limits assumed): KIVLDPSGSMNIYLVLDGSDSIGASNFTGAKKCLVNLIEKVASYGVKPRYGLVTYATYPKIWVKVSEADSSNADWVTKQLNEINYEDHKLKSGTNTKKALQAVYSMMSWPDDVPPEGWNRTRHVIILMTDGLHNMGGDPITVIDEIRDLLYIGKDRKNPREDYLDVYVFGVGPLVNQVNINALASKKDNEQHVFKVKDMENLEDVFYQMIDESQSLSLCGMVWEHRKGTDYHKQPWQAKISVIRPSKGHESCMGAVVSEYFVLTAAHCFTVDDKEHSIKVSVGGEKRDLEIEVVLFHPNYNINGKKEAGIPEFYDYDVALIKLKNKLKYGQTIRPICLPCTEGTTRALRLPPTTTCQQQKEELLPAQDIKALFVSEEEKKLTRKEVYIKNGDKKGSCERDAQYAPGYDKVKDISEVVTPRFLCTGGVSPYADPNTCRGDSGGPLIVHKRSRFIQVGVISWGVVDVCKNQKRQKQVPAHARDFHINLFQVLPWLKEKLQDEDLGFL

The first test relates to complement alternative pathway. Put plainly: Wieslab AP assay (Complement Alternative Pathway ELISA, human serum as source of complement). It counts as biochemical. Particulars: read-out: B: Wieslab AP IC50 (nM) (alternative pathway). The source says:
Among other things, the present disclosure provides compounds and compositions that can modulate complement activation. In some embodiments, provided technologies inhibit complement activation. In some embodiments, provided technologies inhibit C3 convertase. Various technologies are available for assessing provided compounds, compositions and methods. In some embodiments, a useful assay is an assay described below. In some embodiments, IC50 of a provided compound measured in an assay is about or no more than about 1000, 900, 800, 700, 600, 500, 400, 300, 200, 100, 90, 80, 70, 60, 50, 40, 30, 20, or 10 nM. In some embodiments, a useful assay is a biochemical assay assessing inhibition of C3 convertase activity by a provided compound. In some embodiments, a purified, isolated or enriched C3 convertase is utilized. In some embodiments, CVF:Bb (e.g., assembled from three components Cobra Venom Factor (CVF), Complement Factor B (FB) and Complement Factor D (FD)) was utilized (certain results are presented as “A” in the Table below). In some embodiments, a compound was first contacted with CVF:Bb, followed by addition of C3 substrates. As those skilled in the art will appreciate, products C3a and/or C3b could be detected through a number of technologies (e.g., antibodies specific for a product) and reduction of levels of one or both of them could be utilized to assess inhibition. In some embodiments, a useful assay is Wieslab© assay (certain results are presented as “B” in the Table below).
In some embodiments, classical and alternative pathway activity are assessed using Wieslab© technologies. In some embodiments, Wieslab© assay were performed with a commercially available kit, using a protocol adapted for measurement of complement inhibitory activity of compounds. In some embodiments, human serum was utilized as a positive control. In some embodiments, human serum serves as a source of complement proteins, and inhibition of complement activity of a serum by various compounds were assessed. In some embodiments, a kit is COMPL AP330, Complement Alternative Pathway ELISA, Eagle Biosciences. In some embodiments, a kit is COMPL CP310, Complement Classical Pathway ELISA, Eagle Biosciences. In some embodiments, kits are available from VWR (102994-104, Complement Alternative pathway ELISA, Eagle Biosciences, Inc.; 102994-106, Complement Classical pathway ELISA, Eagle Biosciences, Inc.).
In some embodiments, a useful procedure described below is utilized. • 1. Make fresh test compound stock at 1 mM. • 2. Test compound serial dilution: dilute the stock to working stock concentrations. Add DMSO to dilution buffer using same dilution factor for the working stock so the composition of all the serial diluted stock is the same. In some embodiments, stock was serial diluted from the working stock 1:4 (for classical pathway) or 1:2 (for alternative pathway) using new diluted dilution buffers. • 3. Dilute positive controls using the dilution buffer provided with the assay kit to 2× of the final conc., for classical pathway, 50.5×. Positive control is human serum, which contains complement proteins. • 4. Add 125 μL of test compound solution and 125 μL of diluted positive control to a 96 well polypropylene plate, mix gently and cover the plate and incubate at 4° C. for 30 min. • 5. Add 100 μL/well to the assay plate and incubate at 37° C. for 1 h. Typically, controls in the assay plate, for example, buffer alone for negative control, positive control alone to verify the complement activity of the reagent. • 6. Wash plate and add 100 μL/well conjugate, incubate at room temperature for 30 min. • 7. Wash plate and add 100 μL/well substrate, then incubate at room temperature for approximately 30 minutes. Periodically monitor the absorbance at 405 nm (OD405) in the positive control alone well. • 8. Once the OD405 is >1, read the whole plate immediately. Or stop the reaction by adding 100 μL of 5 mM EDTA to each well and read within 60 minutes.
In general terms: An ELISA detects its analyte on a solid surface through an enzyme-linked reagent.
As to `COc1cc(C)c2[nH]ccc2c1CN1CCN(C)CC1c1ccc(C(=O)O)cc1` (stereo not shown), the IC50 was found to be 1570 nM.
Turning to `Cc1cc(C2CC2)c(CN2CCN(CC(F)F)C[C@H]2c2ccc(C(=O)O)cc2)c2cc[nH]c12` [drawing 450], the IC50 was found to be 396 nM.
Consider `COc1cc(C)c2[nH]ccc2c1CN1CCN(C)C(=O)[C@H]1c1ccc(C(=O)O)cc1`, for which the IC50 is 1000 nM.
Turning to `COc1cc(C)c2[nH]ccc2c1CN1CCN(CCC(F)(F)F)C[C@H]1c1ccc(C(=O)O)nc1`, the IC50 was determined as 34 nM.
On the same count and under the same terms, to `COc1cc(C)c2[nH]ccc2c1CN1CCN(C(C)CC(F)(F)F)C[C@H]1c1ccc(C(=O)O)cc1` (stereo partly shown) belongs 110 nM.
In the case of `COc1cc(C)c2[nH]ccc2c1CN1CCN(CCC(F)(F)F)C[C@H]1c1ccc(C(=O)O)cc1`, the IC50 was 13 nM.
On the same count and under the same terms, the result for `COc1cc(C)c2[nH]ccc2c1CN1CCN(CC(F)F)C[C@H]1c1ccc(C(=O)NS(C)(=O)=O)cc1` reads 8 nM.
Take `COc1cc(C)c2[nH]ccc2c1CN1CCN(CC(C)(F)F)C[C@H]1c1ccc(C(=O)O)cc1`: the IC50 was 211 nM.
Same read-out and setting: the result for `COc1cc(C)c2[nH]ccc2c1CN1CC(=O)N(C)C[C@H]1c1ccc(C(=O)O)cc1` reads 1000 nM; that for `COc1cc(C)c2[nH]ccc2c1CN1CCN(Cc2ncc[nH]2)C[C@@H]1c1ccc(C(=O)O)cc1`, above 10000 nM.

A further test concerns the target C3 convertase (CVF:Bb) (Homo sapiens, UniProt P00751). Nature of the test: C3 Convertase Assay (biochemical assay, compound contacted with CVF:Bb, then C3 substrate added).
Settings: not given
The source says:
Various technologies are available for assessing provided compounds, compositions and methods. In some embodiments, a useful assay is an assay described below. […] In some embodiments, a purified, isolated or enriched C3 convertase is utilized. […] In some embodiments, a compound was first contacted with CVF:Bb, followed by addition of C3 substrates. As those skilled in the art will appreciate, products C3a and/or C3b could be detected through a number of technologies (e.g., antibodies specific for a product) and reduction of levels of one or both of them could be utilized to assess inhibition.
The molecule `CCCCN1CCN(Cc2c(OC)cc(C)c3[nH]ccc23)C(c2ccc(C(=O)O)cc2)C1` (stereo not shown) yielded an IC50 of 980 nM.
Still for that read-out and setting: to `CCC(C)CN1CCN(Cc2c(OC)cc(C)c3[nH]ccc23)C(c2ccc(C(=O)O)cc2)C1` (stereo not shown) belongs 6590 nM; to `CN1CCN(Cc2cccc3[nH]ccc23)C(c2ccc(C(=O)O)cc2)C1` (stereo not shown), above 10000 nM; to `COc1cc(C)c2[nH]ccc2c1CN1CCNCC1c1ccc(C(=O)O)cc1` (stereo not shown), above 10000 nM.
Same read-out and setting: the result for `COc1cc(C)c2[nH]ccc2c1CN1CCN(CC(F)F)C[C@H]1c1ccc(C(=O)NS(=O)(=O)C2CC2)cc1` reads 520 nM; that for `COc1cc(Cl)c2[nH]ccc2c1CN1CCN(CC(F)(F)F)C[C@H]1c1ccc(C(=O)O)cc1`, 2350 nM; that for `COc1cc(C)c2[nH]ccc2c1CN1CCN(C)CC1c1ccc(C(=O)O)cc1` (stereo not shown), 163 nM.
In turn, `COc1cc(C)c2[nH]ccc2c1CN1CCN(c2ccccc2)CC1c1ccc(C(=O)O)cc1` (stereo not shown) registered an IC50 above 10000 nM.
Same read-out and setting: to `COc1cc(C)c2[nH]ccc2c1CN1CCN(CC(F)F)C[C@H]1c1ccc(C(=O)O)cc1` belongs 28 nM; to `COc1cc(Cl)c2[nH]ccc2c1CN1CCN(CC(F)F)C[C@H]1c1ccc(C(=O)O)cc1` [drawing 436], 1490 nM.
Molecule `Cc1cc(C2CC2)c(CN2CCN(CC(F)F)C[C@@H]2c2ccc(C(=O)O)cc2)c2cc[nH]c12` yielded a half-maximal inhibitory concentration (IC50) of 163 nM.
Molecule `C#CCN1CCN(Cc2c(OC)cc(C)c3[nH]ccc23)C(c2ccc(C(=O)O)cc2)C1` (stereo not shown) registered an IC50 of 1070 nM.
On the same count and under the same terms, to `COc1cc(C)c2[nH]ccc2c1C(=O)N1CCN(C)CC1c1ccc(C(=O)O)cc1` (stereo not shown) belongs above 10000 nM.
On the same count and under the same terms, to `COc1cc(C)c2[nH]ccc2c1CN1CCN(C(C)=O)CC1c1ccc(C(=O)O)cc1` (stereo not shown) belongs above 10000 nM.
`COc1cc(C)c2[nH]ccc2c1CN1CCN(C)C(=O)[C@H]1c1ccc(C(=O)O)cc1` gave an IC50 of 360 nM.
On to `COc1cc(C)c2[nH]ccc2c1CN1CCN(C2CC2)C[C@H]1c1ccc(C(=O)O)cc1` (single isomer, unassigned), for which the midpoint of inhibition, the IC50, lay at 96 nM.
Regarding `COc1cc(C)c2[nH]ccc2c1CN1CCN(Cc2ncco2)C[C@@H]1c1ccc(C(=O)O)cc1`, the half-inhibitory concentration (IC50) is above 10000 nM.
In turn, `COc1cc(C)c2[nH]ccc2c1CN1CCN(C2CCC2)CC1c1ccc(C(=O)O)cc1` (stereo not shown) came in with an IC50 of 2580 nM.
Same read-out and setting: to `COc1cc(C)c2[nH]ccc2c1CN1CCN(CCC(F)(F)F)C[C@H]1c1ccc(C(=O)O)nc1` belongs 96 nM.
On the same count and under the same terms, the result for `COc1cc(C)c2[nH]ccc2c1CN1CCN(CCCF)C[C@H]1c1ccc(C(=O)O)cc1` reads 99 nM; that for `COc1cc(C)c2[nH]ccc2c1CN1CCN(CCF)C[C@@H]1c1ccc(C(=O)O)cc1`, 42 nM; that for `COc1cc(C)c2[nH]ccc2c1CN1CCN(C(C)C)CC1c1ccc(C(=O)O)cc1` (stereo not shown), 652 nM.
The same measure, in the same setting: the result for `COc1cc(C)c2[nH]ccc2c1CN1CCN(CCC(F)(F)F)C[C@H]1c1ccc(C(=O)O)cc1` reads 29 nM; that for `COCCN1CCN(Cc2c(OC)cc(C)c3[nH]ccc23)C(c2ccc(C(=O)O)cc2)C1` (stereo not shown), 221 nM.
For `CCC(C)N1CCN(Cc2c(OC)cc(C)c3[nH]ccc23)C(c2ccc(C(=O)O)cc2)C1` (stereo not shown), the IC50 was found to be 405 nM.
The molecule `Cc1ccc(CN2CCN(C)CC2c2ccc(C(=O)O)cc2)c2cc[nH]c12` (stereo not shown) showed a concentration for half-maximal inhibition (IC50) of 479 nM.
With `COc1cc(C)c2[nH]ccc2c1CN1CCN(CC(F)F)C[C@H]1c1ccc(C(=O)NS(C)(=O)=O)cc1`, inhibition was half-maximal at 243 nM (IC50).
The same measure, in the same setting: the result for `COc1cc(C)c2[nH]ccc2c1CN1CCN(c2cccnn2)C[C@H]1c1ccc(C(=O)O)cc1` reads above 10000 nM; that for `COc1cc(C)c2[nH]ccc2c1CN1CCN(c2ncccn2)C[C@H]1c1ccc(C(=O)O)cc1`, above 10000 nM.
Regarding `COc1cc(C)c2[nH]ccc2c1CN1CCN(CC(C)(F)F)C[C@H]1c1ccc(C(=O)O)cc1`, the IC50 came to 272 nM.
Same read-out and setting: the result for `COc1cc(C)c2[nH]ccc2c1CN1CC2(CC2)N(C)C[C@H]1c1ccc(C(=O)O)cc1` reads 7390 nM; that for `COc1cc(C)c2[nH]ccc2c1CN1CC(=O)N(C)C[C@H]1c1ccc(C(=O)O)cc1`, 6400 nM.
The same measure, in the same setting: to `COc1cc(Cl)c2[nH]ccc2c1CN1CCN(CC(F)(F)F)CC1c1ccc(C(=O)O)cc1` (stereo not shown) belongs 2700 nM.
Molecule `COc1cc(C)c2[nH]ccc2c1CN1CCN(CC2CC2)CC1c1ccc(C(=O)O)cc1` (stereo not shown) came in with an IC50 of 2290 nM.
Still for that read-out and setting: to `COc1cc(C)c2[nH]ccc2c1CN1CCN(CC(F)F)C[C@@H]1c1ccc(C(=O)O)cc1` belongs 80 nM; to `COc1cc(C)c2[nH]ccc2c1CN1CCN(CC2CCC2)CC1c1ccc(C(=O)O)cc1` (stereo not shown), 1350 nM; to `COc1cc(C)c2[nH]ccc2c1CN1CCN(Cc2ncco2)C[C@H]1c1ccc(C(=O)O)cc1`, 9110 nM.
Take `COc1cc(C)c2[nH]ccc2c1CN1CCN(CC2CCCC2)CC1c1ccc(C(=O)O)cc1` (stereo not shown): the IC50 is 3080 nM.
In turn, `COc1cc(C)c2[nH]ccc2c1CN1CCN(S(C)(=O)=O)CC1c1ccc(C(=O)O)cc1` (stereo not shown) yielded an IC50 of 9330 nM.
On the same count and under the same terms, the result for `COc1cc(C)c2[nH]ccc2c1CN1CCN(C2CC2)C[C@@H]1c1ccc(C(=O)O)cc1` (single isomer, unassigned) reads 4380 nM; that for `COc1cc(C)c2[nH]ccc2c1CN1CCN(C2COC2)CC1c1ccc(C(=O)O)cc1` (stereo not shown), above 10000 nM.
On the same count and under the same terms, the result for `COc1cc(C)c2[nH]ccc2c1CN1CCN(C)C[C@@H]1c1ccc(C(=O)O)cc1` (single isomer, unassigned) reads above 10000 nM; that for `Cc1cc(C2CC2)c(CN2CCN(CC(F)(F)F)C[C@H]2c2ccc(C(=O)O)cc2)c2cc[nH]c12`, 348 nM.
On the same count and under the same terms, to `COc1cc(C)c2[nH]ccc2c1CN1CCN(C2CCCC2)CC1c1ccc(C(=O)O)cc1` (stereo not shown) belongs 3880 nM.
For the molecule `COc1cc(Cl)c2[nH]ccc2c1CN1CCN(CC(F)F)C[C@H]1c1ccc(C(=O)O)cc1` [drawing 446], the IC50 was determined as 3150 nM.
The molecule `COc1cc(C)c2[nH]ccc2c1CN1CCN(CCC(C)C)CC1c1ccc(C(=O)O)cc1` (stereo not shown) registered an IC50 of 3200 nM.
Regarding `COc1cc(C)c2[nH]ccc2c1CN1CCN(Cc2ccccc2)CC1c1ccc(C(=O)O)cc1` (stereo not shown), the midpoint of inhibition, the IC50, lay at 5240 nM.
`COc1cc(C)c2[nH]ccc2c1CN1CCN(c2nccs2)C[C@H]1c1ccc(C(=O)O)cc1` displayed an IC50 above 10000 nM.
Same read-out and setting: to `COc1cc(C)c2[nH]ccc2c1CN1CCN(CCO)CC1c1ccc(C(=O)O)cc1` (stereo not shown) belongs 119 nM; to `COc1cc(C)c2[nH]ccc2c1CN1CCN(CC(C)C)CC1c1ccc(C(=O)O)cc1` (stereo not shown), 4670 nM.
In turn, `COc1cc(Cl)c2[nH]ccc2c1CN1CCN(CC(F)(F)F)C[C@@H]1c1ccc(C(=O)O)cc1` displayed an IC50 above 10000 nM.

As a reminder, the IC50 is the point on the concentration scale where inhibition reaches its midpoint.

Source of the values: patent US20240360103A1, “COMPLEMENT INHIBITION” (Apellis Pharmaceuticals, Inc., priority 2021, published 2024).
